From patent US12673052B2, “Combinations for the treatment of cancer” (Exelixis, Inc., priority 2020, dated 2026)
Where two headings read alike, the source gives them in different places.

Experiments:
[1] = Phase 1 first-in-human Study Compound 1-001 (NCT03845166): plasma pharmacokinetics; assay type: in vivo; conditions: for Cmax / AUC(0-t) / Tmax / half-life / Tmax at 28 days / half-life at 28 days: human, plasma, oral; for AUC(0-t): read-out: AUC0-24
Excerpt: The maximum tolerated dose (MTD) and/or recommended dose (RD) of Compound 1 single-agent therapy and ICI combination therapy will be determined in a Dose-Escalation Stage. The preliminary efficacy of Compound 1 as single agent and as ICI combination therapy will be determined in a Cohort-Expansion Stage with tumor-specific expansion cohorts. As of 14 Dec. 2020, dose escalation of Compound 1 as single agent and in combination therapy with atezolizumab was ongoing: 19 subjects were enrolled in single agent cohorts across six dose levels (PIB: 10, 20 mg; Tablet: 20, 40, 80, 140 mg); three subjects were enrolled in combination therapy with atezolizumab at one dose level (Compound 1 40 mg po qd plus atezolizumab 1200 mg IV q3w). As of 14 Dec. […] The majority of reported adverse events (AEs) were of low-grade severity (Grade 1-2) with five subjects having experienced treatment-related Grade 3 events.
As of 14 Dec. 2020, preliminary Compound 1 clinical PK data are available from 17 subjects in the single agent Dose-Escalation Stage of Study Compound 1-001 (n=3 for 10 mg liquid formulation [PIB]; n=4 for 20 mg liquid formulation [PIB]; n=3 for 20 mg tablet; n =4 for 40 mg tablet; n=3 for 80 mg tablet). In addition, PK of Compound 1 was evaluated when given in the combination with atezolizumab. PK data from a total of 3 subjects enrolled in the Combination Cohort 1 (40 mg Compound 1 qd+1200 mg atezolizumab q3w) are available. A summary of all available PK parameters estimated by non-compartmental approach using individual plasma concentration-time data from a single agent Compound 1 is presented in Table 1. Mean (standard deviation [SD]) plasma Compound 1 concentration-time profiles following a single agent PIB or tablet formulation are illustrated in FIG. 8.
• Blood samples to assess the PK of Compound 1 and its potential metabolites will be obtained during the DLT Evaluation Period: • On the date of first dose of study treatment (prior to study treatment administration) at hourly intervals up to 8 hours postdose on W1D1 and W4D7 (Day 28) • Predose on W1D2 • Predose and 2 hours postdose on W2D1, W3D1, and W4D1 • During the Washout Period on W5D1, W5D2, W5D3, and W5D5 (W5D2, W5D3, and W5D5 PK samples are not required for biomarker cohorts.) • Blood samples for PK analysis will be obtained after the DLT Evaluation and Washout Periods • Predose and 2 hours postdose on W6D1, W9D1, and W13D1.

AXL = AXL (Homo sapiens, UniProt P30530); assay: RTK autophosphorylation ELISA, A-172 cells stimulated with Gas6; assay type: cell-based; parameters: cell lines (PC-3, HUVEC, and A-172) stimulated with ligands to their respective receptors to induce autophosphorylation (MET, VEGFR2, and AXL); endogenous in cells; host or cells: A-172; conditions: ligand Gas6, read-out: Cellular IC50
Description: The activity of Compound 1 was evaluated in cell-based assays that assessed the mechanistic effects of the compound in tumor and normal cells. Consistent with the biochemical data, Compound 1 is a potent inhibitor of cellular RTKs as assessed by analysis of receptor autophosphorylation as measured by enzyme-linked immunosorbent assay. Assays were performed using cell lines (PC-3, HUVEC, and A-172) stimulated with ligands to their respective receptors to induce autophosphorylation (MET, VEGFR2, and AXL) or a cell line (293A) transfected with an expression vector encoding the receptor of interest (MER). Inhibition of endogenous phosphorylated MET by Compound 1 in Hs 746T gastric carcinoma cells was also investigated due to the presence of the skip-splice mutation of exon 14 in the MET gene. This MET exon 14 alteration leads to increased MET stability and oncogenic activation, including constitutive MET phosphorylation. Also this mutation is known to occur in 3% of lung adenocarcinoma patients and to be sensitive to MET-targeted therapies (Frampton et al 2015).

[2] = 10 mg PIB, Steady-State (Day 28), mean ± SD
[3] = 20 mg PIB, Steady-State (Day 28), N = 3, mean ± SD
[4] = 20 mg Tablet, Steady-State (Day 28), mean ± SD
[5] = 40 mg Tablet, Steady-State (Day 28), mean ± SD
[6] = 80 mg Tablet, Steady-State (Day 28), mean ± SD
[7] = 10 mg, 10 mg PIB, First Dose (Day 1), mean ± SD
[8] = 10 mg, 10 mg PIB, Steady-State (Day 28), mean ± SD
[9] = 20 mg, 20 mg PIB, First Dose (Day 1), mean ± SD
[10] = 20 mg, 20 mg PIB, Steady-State (Day 28), N = 3, mean ± SD
[11] = 20 mg, 20 mg Tablet, First Dose (Day 1), mean ± SD
[12] = 20 mg, 20 mg Tablet, Steady-State (Day 28), mean ± SD
[13] = 40 mg, 40 mg Tablet, First Dose (Day 1), mean ± SD
[14] = 40 mg, 40 mg Tablet, Steady-State (Day 28), mean ± SD
[15] = 80 mg, 80 mg Tablet, First Dose (Day 1), mean ± SD
[16] = 80 mg, 80 mg Tablet, Steady-State (Day 28), mean ± SD

AXL, sequence (P30530 26-894): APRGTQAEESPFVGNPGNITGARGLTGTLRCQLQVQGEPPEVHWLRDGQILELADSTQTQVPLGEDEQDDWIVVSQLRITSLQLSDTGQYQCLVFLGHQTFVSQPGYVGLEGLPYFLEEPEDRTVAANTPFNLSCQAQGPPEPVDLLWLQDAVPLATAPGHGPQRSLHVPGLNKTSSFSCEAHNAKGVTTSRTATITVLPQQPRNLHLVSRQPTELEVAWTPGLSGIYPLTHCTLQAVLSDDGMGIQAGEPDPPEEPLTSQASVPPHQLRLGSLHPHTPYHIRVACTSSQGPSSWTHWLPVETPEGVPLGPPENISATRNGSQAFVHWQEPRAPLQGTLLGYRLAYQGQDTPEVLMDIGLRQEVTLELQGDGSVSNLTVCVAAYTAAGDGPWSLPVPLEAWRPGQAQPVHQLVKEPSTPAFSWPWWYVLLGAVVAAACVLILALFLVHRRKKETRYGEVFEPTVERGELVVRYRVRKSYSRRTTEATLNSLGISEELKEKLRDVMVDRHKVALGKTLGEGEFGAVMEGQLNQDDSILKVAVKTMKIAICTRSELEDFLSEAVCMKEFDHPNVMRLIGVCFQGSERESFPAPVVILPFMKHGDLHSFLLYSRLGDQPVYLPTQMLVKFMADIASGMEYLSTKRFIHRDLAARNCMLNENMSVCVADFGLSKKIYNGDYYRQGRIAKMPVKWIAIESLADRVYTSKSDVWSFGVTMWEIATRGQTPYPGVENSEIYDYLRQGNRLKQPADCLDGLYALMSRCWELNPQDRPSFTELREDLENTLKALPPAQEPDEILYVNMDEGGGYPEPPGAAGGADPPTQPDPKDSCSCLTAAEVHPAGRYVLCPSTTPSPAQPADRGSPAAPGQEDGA

CNC(=O)c1cc2c(Oc3ccc(NC(=O)C4(C(=O)Nc5ccc(F)cc5)CC4)cc3)ccnc2cc1OC [Compound 1, 1-N′-(4-Fluorophenvl)-1-N-[4-[7-methoxy-6-(methylcarbamovl)quinolin-4-yl]oxyphenyl]cyclopropane-1,1-dicarboxamide]
AR AUC0-24 (accumulation ratio) [1, 2]: 1.92 ± 0.593 | AR Cmax (accumulation ratio) [1, 2]: 2.76 ± 0.609 | AR AUC0-24 (accumulation ratio) [1, 3]: 3.61 ± 4.09 | AR Cmax (accumulation ratio) [1, 3]: 4.09 ± 5.40 | AR AUC0-24 (accumulation ratio) [1, 4]: 1.33 ± 0.136 | AR Cmax (accumulation ratio) [1, 4]: 1.30 ± 0.374 | mean exposure of Compound 1 (Cmax and AUC0-24) in combination with atezolizumab relative to single agent ([1]; 40 mg Compound 1 qd + 1200 mg atezolizumab q3w, steady-state, lower in combination): approximately 2 fold | AR AUC0-24 (accumulation ratio) [1, 5]: 1.46 ± 0.286 | AR Cmax (accumulation ratio) [1, 5]: 1.27 ± 0.0979 | AR AUC0-24 (accumulation ratio) [1, 6]: 1.88 ± 0.947 | AR Cmax (accumulation ratio) [1, 6]: 1.67 ± 0.636 | accumulation at steady state ([1]; 20-mg tablet): < 2 fold | increase of mean exposure (AUC0-24) with dose ([1]; PIB 10 mg to 20 mg, Day 1): approximately dose proportionally | Mean PK exposure (Cmax and AUC0-24) of 20 mg tablet relative to 20 mg PIB ([1]; first dose Day 1, tablet higher): approximately 3.7 fold | increase of exposure with dose ([1]; first dose, 20 to 80 mg tablets, single agent): approximately dose proportional | Cmax [1, 7]: 35.7 ± 10.8 ng/mL | AUC(0-t) [1, 7]: 510 ± 193 ng·h/mL | Tmax ([1]; 10 mg, 10 mg PIB, First Dose (Day 1), median (min, max), read-out: Tmax): 1 h | Cmax [1, 8]: 95.2 ± 17.8 ng/mL | AUC(0-t) [1, 8]: 971 ± 398 ng·h/mL | half-life ([1]; 10 mg, 10 mg PIB, Steady-State (Day 28), mean ± SD, read-out: t1/2 (terminal phase half-life) (converted)): 19.9 ± 1.3 h | Tmax at 28 days ([1]; 10 mg, 10 mg PIB, Steady-State (Day 28), median (min, max)): 2 h | Cmax [1, 9]: 91.9 ± 13.4 ng/mL | AUC(0-t) [1, 9]: 1000 ± 338 ng·h/mL | Tmax ([1]; 20 mg, 20 mg PIB, First Dose (Day 1), median (min, max), read-out: Tmax): 2 h | Cmax [1, 10]: 330 ± 409 ng/mL | AUC(0-t) [1, 10]: 3270 ± 4010 ng·h/mL | half-life ([1]; 20 mg, 20 mg PIB, Steady-State (Day 28), N = 3, mean ± SD, read-out: t1/2 (terminal phase half-life) (converted)): 21 ± 5.7 h | Tmax at 28 days ([1]; 20 mg, 20 mg PIB, Steady-State (Day 28), N = 3, median (min, max)): 2 h | Cmax [1, 11]: 342 ± 225 ng/mL | AUC(0-t) [1, 11]: 3680 ± 1550 ng·h/mL | Tmax ([1]; 20 mg, 20 mg Tablet, First Dose (Day 1), median (min, max), read-out: Tmax): 6 h | Cmax [1, 12]: 422 ± 241 ng/mL | AUC(0-t) [1, 12]: 5030 ± 2560 ng·h/mL | half-life ([1]; 20 mg, 20 mg Tablet, Steady-State (Day 28), mean ± SD, read-out: t1/2 (terminal phase half-life) (converted)): 27.8 ± 4.74 h | Tmax ([1]; 20 mg, 20 mg Tablet, Steady-State (Day 28), median (min, max), read-out: Tmax): 1 h | half-life at 28 days ([1]; 20 mg, PIB 10 and 20 mg, steady-state Day 28, read-out: mean terminal half-life (t1/2) (converted)): ~20 h | Cmax [1, 13]: 521 ± 202 ng/mL | AUC(0-t) [1, 13]: 6350 ± 1540 ng·h/mL | Tmax ([1]; 40 mg, 40 mg Tablet, First Dose (Day 1), median (min, max), read-out: Tmax): 5 h | Cmax [1, 14]: 656 ± 242 ng/mL | AUC(0-t) [1, 14]: 8190 ± 1560 ng·h/mL | half-life ([1]; 40 mg, 40 mg Tablet, Steady-State (Day 28), mean ± SD, read-out: t1/2 (terminal phase half-life) (converted)): 24.2 ± 5.01 h | Tmax ([1]; 40 mg, 40 mg Tablet, Steady-State (Day 28), median (min, max), read-out: Tmax): 3 h | Cmax [1, 15]: 935 ± 348 ng/mL | AUC(0-t) [1, 15]: 11000 ± 6290 ng·h/mL | Tmax ([1]; 80 mg, 80 mg Tablet, First Dose (Day 1), median (min, max), read-out: Tmax): 2 h | Cmax [1, 16]: 1440 ± 454 ng/mL | AUC(0-t) [1, 16]: 16900 ± 3120 ng·h/mL | half-life ([1]; 80 mg, 80 mg Tablet, Steady-State (Day 28), mean ± SD, read-out: t1/2 (terminal phase half-life) (converted)): 19.3 ± 3.35 h | Tmax ([1]; 80 mg, 80 mg Tablet, Steady-State (Day 28), median (min, max), read-out: Tmax): 3 h | Tmax ([1]; first dose, tablets 20 to 80 mg, read-out: median Tmax): 2 to 6 h | half-life ([1]; tablet (as of April 2021), read-out: terminal half-life at steady state): 24 to 28 h | half-life at 28 days ([1]; tablets, steady-state, read-out: mean t1/2): 19 to 28 h | exposure (AUC0-24) of 20-mg tablet higher than 20 mg PIB ([1]; steady-state Day 28): approximately 50% | accumulation in exposure (Cmax and AUC0-24) at steady-state ([1]; tablets, after 28 days of daily dosing): < 2 fold | mean apparent CL/F ([1]; tablets, steady-state): approximately 5 L/hr | IC50 (AXL): 3.4 nM
